In ChEMBL document CHEMBL3638874, “Pyrrolopyrimidine compounds and their uses” (2015):

Assays:
[1] = target: Cyclin-dependent kinase 1 (Homo sapiens, UniProt P06493); test: (§1) IMAP-FPT (Molecular Devices Trade Mark Technology) Endpoint Assay: A 384-well microtiter IMAP-FPT (Molecular Devices Trade Mark Technology) endpoint assay was used for CDK1/cyclin B kinase activity measurements. The same assay was used for IC50 determination of small molecule inhibitors. In general, the kinase reactions were carried out in 20 uL volumes in the reaction solution, which is composed of 2 uL compound (in 20% DMSO), 8 uL CDK1/cyclin B in the 1x Reaction Buffer (Molecular Devices, Cat. No. R8139), 10 uL substrate mixture of Tamra Histone-H1 peptide (Molecular Devices, Cat. No. R7384) and ATP (Amersham Pharmacia, Cat. No. 27-2056-01) in the 1x Reaction Buffer with 1 mM DTT freshly added. The final reaction mixture contains compound (inhibitor) with the concentration varying from 0.005-10 uM, 2% DMSO, 0.25 nM CDK1/cyclin B, 100 nM Tamra Histone-H1 peptide, and 20 uM ATP.All reactions were run at room temperature in black 384-well flat-bottom Costar plates (Corning, Cat. No. 3710) for 120 min then were quenched.
Cyclin-dependent kinase 1, sequence (P06493 whole entry): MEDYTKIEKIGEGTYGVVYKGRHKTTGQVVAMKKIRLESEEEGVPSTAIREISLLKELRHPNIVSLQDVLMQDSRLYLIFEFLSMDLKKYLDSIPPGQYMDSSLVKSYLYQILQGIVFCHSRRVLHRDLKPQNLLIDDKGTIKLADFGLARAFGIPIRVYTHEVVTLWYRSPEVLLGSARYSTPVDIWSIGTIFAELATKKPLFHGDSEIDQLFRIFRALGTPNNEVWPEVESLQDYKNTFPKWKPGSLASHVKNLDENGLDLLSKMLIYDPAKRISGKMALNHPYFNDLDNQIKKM

[2] = target: Cyclin-dependent kinase 2 (Homo sapiens, UniProt P24941); test: as §1, with “Assay: The assay was run under the conditions identical to that for CDK1/cyclin B except 0.25 nM CDK1/cyclin B was replaced with 0.3 nM CDK2/cyclin A.” for “Assay:”, “μL” for “uL”, “1×” for “1x”, “μM,” for “uM,”, “μM ATP.” for “uM ATP.All reactions were run at room temperature in black 384-well flat-bottom Costar plates (Corning, Cat. No. 3710) for 120 min then were quenched.”

Compound: CN(C)C(=O)c1cc2cnc(Nc3ccc(N4CCNCC4=O)cn3)nc2n1C1CCCC1
- IC50 [1]: > 15 µM
- IC50 [2]: > 15 µM
